Read-outs that look alike come from different tables or passages of the source.
Tests used:
[1] = tested on: 5-dpf zebrafish larvae challenged with P. aeruginosa LPS 60 μg/mL; format: in vivo, Danio rerio; conditions: compound 10 μM
[2] = tested on: larval zebrafish locomotor behavior; format: in vivo; conditions: in vivo
From the text: This assay is a modified version of the larval zebrafish light dark transition assay with an added UV light (wavelength=295 nm) phase to capture any compound specific neurological effects to UV light. (Basnet et al., 2019, Kokel et al., 2013, Peng et al., 2016). The light period assesses deviations from normal locomotor behavior while the rapid transition to dark provides a measure of stress response by identifying any deviations from the normal heightened locomotor activity caused by the transition to dark. The neurobehavioral assay used a custom trial control script created by Noldus Ethovision XT 15, and it was executed in a Noldus DanioVision system. Zebrafish larvae in microplates were allowed to habituate in the DanioVision system for 5 minutes under white light conditions prior to the start of the test. The neurobehavioral assay consisted of three phases: a 3-minute light phase (white light), a 3-minute dark phase (no light) and a 5 second UV phase (UV light only). The Danio Vision system captured larval zebrafish movement throughout this assay at 30 frames per second.
LC50s for the LPS tests were determined using the Trimmed Spearmen-Karber method (Hamilton et al., 1977). The tail edema and mortality data from the initial and confirmatory drug testing was analyzed using GraphPad Prism 9 using Fisher's Exact Test. Each drug treatment group was compared pairwise with the on-board positive control group on each test plate. Statistical significance was determined with values of p≤0.05. Neurological behavioral testing data was analyzed by Ethovision software that produced an activity analysis profile per frame for each well of the 96 well plates. Any dead embryos were removed from the data set, and the remaining data set was imported into Excel. The offset function in Excel was used to average the percentage of pixel change per 0.1 s for each plate. […] The behavioral data was then statistically analyzed by drug per phase using a 2 tailed t-test to determine statistical significance p≤0.01.

[3] = tested on: 5-dpf zebrafish challenged with K. Pneumoniae LPS (45 μg/mL); test: Challenge with K. Pneumoniae LPS (45 μg/mL), 5-dpf zebrafish; format: in vivo, Danio rerio
Protocol: These tests followed the same methods described in the 5-dpf zebrafish confirmatory testing, but K. Pneumoniae LPS (45 μg/mL final in well concentration) was used instead of P. aeruginosa LPS.

D3 = D3 (Homo sapiens, UniProt P35462); conditions: read-out: affinity (Ki) D3; cited from earlier work
noradrenergic α1A = target: T1, noradrenergic α1A (Homo sapiens, UniProt P35348); conditions: read-out: affinity (Ki) α1A; cited from earlier work
T1 sequence (P35348 1-466): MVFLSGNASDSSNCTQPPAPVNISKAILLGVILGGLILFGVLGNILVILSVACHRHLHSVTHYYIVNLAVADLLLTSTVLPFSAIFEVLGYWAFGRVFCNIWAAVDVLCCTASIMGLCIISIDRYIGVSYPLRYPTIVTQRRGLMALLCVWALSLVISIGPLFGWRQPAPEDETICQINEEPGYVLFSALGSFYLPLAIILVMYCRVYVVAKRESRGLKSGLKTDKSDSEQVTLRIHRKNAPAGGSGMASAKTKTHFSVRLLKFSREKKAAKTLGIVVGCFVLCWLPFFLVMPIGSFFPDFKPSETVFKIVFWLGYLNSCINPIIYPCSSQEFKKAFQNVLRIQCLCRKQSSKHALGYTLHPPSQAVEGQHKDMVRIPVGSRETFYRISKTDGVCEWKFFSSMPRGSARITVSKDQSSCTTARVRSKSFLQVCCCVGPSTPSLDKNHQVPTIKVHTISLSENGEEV

α1D = target: T2, α1D (Homo sapiens, UniProt P25100); conditions: read-out: affinity (Ki) α1D; cited from earlier work
T2 sequence (P25100 1-572): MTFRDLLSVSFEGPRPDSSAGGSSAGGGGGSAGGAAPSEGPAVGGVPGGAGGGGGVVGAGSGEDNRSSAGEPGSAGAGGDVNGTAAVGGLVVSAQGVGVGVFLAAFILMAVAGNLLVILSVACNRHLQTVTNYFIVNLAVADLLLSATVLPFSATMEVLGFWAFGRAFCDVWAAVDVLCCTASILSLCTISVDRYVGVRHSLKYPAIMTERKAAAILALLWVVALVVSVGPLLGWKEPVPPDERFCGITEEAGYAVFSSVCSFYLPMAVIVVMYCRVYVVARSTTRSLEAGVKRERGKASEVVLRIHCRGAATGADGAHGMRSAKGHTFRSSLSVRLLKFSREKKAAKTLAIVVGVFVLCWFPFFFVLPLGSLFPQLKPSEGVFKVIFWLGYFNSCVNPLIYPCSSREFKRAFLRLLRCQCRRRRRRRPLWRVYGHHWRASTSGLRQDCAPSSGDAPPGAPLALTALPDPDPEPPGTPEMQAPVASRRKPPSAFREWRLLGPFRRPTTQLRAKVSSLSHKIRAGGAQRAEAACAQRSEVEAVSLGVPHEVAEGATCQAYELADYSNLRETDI

histamine H1 receptor = histamine H1 receptor (Homo sapiens, UniProt P35367); conditions: read-out: affinity for histamine H1 receptor; cited from earlier work
muscarinic M1 receptor = target: T3, muscarinic M1 receptor (Homo sapiens, UniProt P11229); conditions: at 10 μM; cited from earlier work
T3 sequence (P11229 1-460): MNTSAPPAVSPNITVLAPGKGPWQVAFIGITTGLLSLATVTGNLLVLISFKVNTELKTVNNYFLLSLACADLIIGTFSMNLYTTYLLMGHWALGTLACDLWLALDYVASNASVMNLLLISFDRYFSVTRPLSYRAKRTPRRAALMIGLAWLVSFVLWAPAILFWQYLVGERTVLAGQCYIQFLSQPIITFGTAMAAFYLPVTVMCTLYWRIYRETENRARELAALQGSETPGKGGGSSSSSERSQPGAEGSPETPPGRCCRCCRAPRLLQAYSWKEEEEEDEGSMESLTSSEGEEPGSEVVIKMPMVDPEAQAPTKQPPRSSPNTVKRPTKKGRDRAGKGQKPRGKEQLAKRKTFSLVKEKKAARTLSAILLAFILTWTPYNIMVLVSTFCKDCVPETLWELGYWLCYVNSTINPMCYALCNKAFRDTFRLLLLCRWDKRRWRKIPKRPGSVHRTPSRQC

Chain of histamine H1 receptor (P35367 whole entry, species assumed): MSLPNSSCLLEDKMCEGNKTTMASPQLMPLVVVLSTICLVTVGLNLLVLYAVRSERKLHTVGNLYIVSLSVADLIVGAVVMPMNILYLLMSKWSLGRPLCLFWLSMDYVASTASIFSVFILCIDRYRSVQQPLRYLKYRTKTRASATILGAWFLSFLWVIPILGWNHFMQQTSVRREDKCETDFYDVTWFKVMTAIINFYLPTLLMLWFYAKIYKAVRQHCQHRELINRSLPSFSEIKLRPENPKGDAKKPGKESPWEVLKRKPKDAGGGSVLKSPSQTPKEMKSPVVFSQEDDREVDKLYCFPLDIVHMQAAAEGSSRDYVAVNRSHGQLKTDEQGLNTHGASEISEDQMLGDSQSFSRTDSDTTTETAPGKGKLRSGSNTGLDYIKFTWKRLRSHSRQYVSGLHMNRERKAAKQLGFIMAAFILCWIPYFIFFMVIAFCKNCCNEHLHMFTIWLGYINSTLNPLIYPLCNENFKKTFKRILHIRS
Chain of D3 (P35462 whole entry): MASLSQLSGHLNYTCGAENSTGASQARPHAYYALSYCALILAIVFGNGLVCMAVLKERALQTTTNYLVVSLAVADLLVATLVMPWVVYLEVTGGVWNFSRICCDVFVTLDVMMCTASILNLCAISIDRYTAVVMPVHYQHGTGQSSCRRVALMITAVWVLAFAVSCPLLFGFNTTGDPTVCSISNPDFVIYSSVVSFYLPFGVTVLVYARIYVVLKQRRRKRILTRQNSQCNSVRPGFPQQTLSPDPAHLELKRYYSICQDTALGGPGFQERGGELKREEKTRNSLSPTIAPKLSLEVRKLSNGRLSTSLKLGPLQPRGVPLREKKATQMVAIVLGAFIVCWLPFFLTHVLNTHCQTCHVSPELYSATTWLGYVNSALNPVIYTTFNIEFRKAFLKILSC

O=c1ccc2ccc(OCCCCN3CCN(c4cccc5sccc45)CC3)cc2[nH]1 [Compound 45, Brexpiprazole]
5 dpf Embryos Percent Rescue (Mort + Tail Edema) ([1]; 5-dpf larvae): 94%
rescue of tail edema and mortality (sepsis rescue rate) at 5-dpf [1]: 94%
rescue of tail edema and mortality (sepsis rescue rate) at 5-dpf ([1]; listed as brexpiprazole): 100%
activity during the dark phase [2]: not significant
rescue of tail edema and mortality [3]: 100%
Ki (D3): 1.1 nM
Ki (noradrenergic α1A): 3.8 nM
Ki (α1D): 2.6 nM
Ki (histamine H1 receptor): 19 nM
inhibition, muscarinic M1 receptor (muscarinic M1 receptor): 67%

Source: patent publication US20250085273A1, “NOVEL RAPID DRUG DISCOVERY FOR SEPSIS AND AGENTS FOR USE AS SEPSIS THERAPY” (priority 2023, published 2025)
